We go through 10 compounds from ChEMBL document CHEMBL4808236, “New phorbol ester derivatives as potent anti-HIV agents” (Bioorg Med Chem Lett, 2021).

The subject of one data set is A549. Put plainly: Antiproliferative activity against human A549 cells assessed as reduction in cell viability measured after 72 hrs by SRB assay. The note with it: A549, 72 h.
Another data set concerns MDA-MB-231. Put plainly: Antiproliferative activity against human MDA-MB-231 cells assessed as reduction in cell viability measured after 72 hrs by SRB assay. It counts as functional, cell-based. The note with it: MDA-MB-231, 72 h.
The test system of the next data set is KB. Put plainly: Antiproliferative activity against human KB cells assessed as reduction in cell viability measured after 72 hrs by SRB assay. Type of data set: functional, cell-based.
Data set [1] in a line: Antiproliferative activity against human KB-VIN cells assessed as reduction in cell viability after 72 hrs by SRB assay. It counts as functional, cell-based. The settings on record: KBVIN.
The test system of a further data set is MCF7. The data set is described as follows: Antiproliferative activity against human MCF7 cells assessed as reduction in cell viability measured after 72 hrs by SRB assay. Type of data set: functional, cell-based. The note with it: MCF7, 72 h.
In data set [2] the test system is Human immunodeficiency virus 1. Put plainly: Antiviral activity against HIV-1 NL4-3 infected in human MT4 cells assessed as reduction in p24 production treated at 48 hrs post-infection and measured on day 4 post-viral infection by ELISA. The settings on record: Human immunodeficiency virus 1, NL4-3, MT4. Type of data set: functional, organism-based.
A further data set relates to MT4. Put plainly: Cytotoxicity against human MT4 cells assessed as reduction in cell viability by CellTiter-Glo luminescence assay. Type of data set: cell-based.
Data set [3] is described as follows: Selectivity index, ratio of CC75 for cytotoxicity against human MT4 cells to IC50 for antiviral activity against HIV-1 NL4-3 infected in human MT4 cells. It counts as toxicity, cell-based. The note with it: read-out: Selectivity Index.
In the next data set the test system is MRC5. The data set is described as follows: Cytotoxicity against human MRC5 cells assessed as inhibition of cell viability. It counts as cell-based.

Where only a bound is given, the exact number is not on record here.

As to `CCCC(=O)O[C@]12C([C@@H]3C=C(CO)C[C@]4(O)C(=O)C(C)=C[C@H]4[C@@]3(O)[C@H](C)[C@H]1OC(=O)/C=C/c1ccccc1)C2(C)C` (single isomer, unassigned), the half-maximal inhibitory concentration (IC50) in the data set with A549 is above 10 µM; in the data set with MDA-MB-231, above 10 µM; in the data set with KB, above 10 µM; in data set [1], above 10 µM; with MCF7, above 10 µM; in data set [2], 0.0009 µM. Also, the IC50 with MRC5 is 8.71 µM. In the data set with MT4, the CC75 is above 5 µM. The selectivity ratio in data set [3] is above 5000.

On to `CC/C=C/C/C=C/C/C=C/C/C=C/C/C=C/CCCC(=O)O[C@@H]1[C@@H](C)[C@@]2(O)[C@@H](C=C(CO)C[C@]3(O)C(=O)C(C)=C[C@@H]23)[C@@H]2C(C)(C)[C@]12OC(=O)CCC`, for which the IC50 in the data set on A549 is above 10 µM; with MDA-MB-231 it was above 10 µM; with KB, above 10 µM; in [1], above 10 µM; in the data set on MCF7 it was above 10 µM; in data set [2], 0.00227 µM. Further, the CC75 in the data set on MT4 is above 5 µM. For the same compound, the selectivity ratio in [3] is above 1500.

`CC/C=C/C/C=C/C/C=C/C/C=C/C/C=C/CCCC(=O)O[C@@H]1[C@@H](C)[C@@]2(O)[C@@H](C=C(CO)C[C@]3(O)C(=O)C(C)=C[C@@H]23)[C@@H]2C(C)(C)[C@]12OC(C)=O`: the IC50 in the data set with A549 is above 10 µM; with MDA-MB-231 it was above 10 µM; in the data set on KB, above 10 µM; in [1], above 10 µM; in the data set on MCF7 it was above 10 µM; in data set [2], 0.00046 µM. The CC75 with MT4 was above 5 µM. For the same compound, in data set [3], the selectivity ratio is above 10000.

Take `CC1=C[C@H]2[C@@]3(O)[C@H](C)[C@@H](OC(=O)/C=C/c4ccccc4)[C@]4(OC(=O)/C=C/c5ccccc5)[C@H]([C@@H]3C=C(CO)C[C@]2(O)C1=O)C4(C)C`: the IC50 with A549 worked out at 4.7 µM; in the data set with MDA-MB-231, 8.29 µM; in the data set on KB, 6.45 µM; in [1], 6.82 µM; in the data set with MCF7, 6.85 µM; in data set [2], 0.00921 µM. The IC50 in the data set on MRC5 amounted to 36.2 µM. For the same compound, the CC75 in the data set with MT4 is above 5 µM. The selectivity ratio in data set [3] was above 500.

Turning to `CC1=C[C@H]2[C@@]3(O)[C@H](C)[C@@H](OC(=O)CCc4ccccc4)[C@]4(OC(=O)CCc5ccccc5)[C@H]([C@@H]3C=C(CO)C[C@]2(O)C1=O)C4(C)C`, the IC50 with A549 was above 10 µM; in the data set on MDA-MB-231, above 10 µM; in the data set on KB it was 8.31 µM; in [1], above 10 µM; with MCF7 it was 10.5 µM; in data set [2], 0.00049 µM. Also, the IC50 in the data set with MRC5 was 11.4 µM. Besides, in the data set with MT4, the CC75 is above 5 µM. Further, the selectivity ratio in [3] was above 10000.

`CCCCCCCCCCCCCCCCCCCC(=O)O[C@]12C([C@@H]3C=C(CO)C[C@]4(O)C(=O)C(C)=C[C@H]4[C@@]3(O)[C@H](C)[C@H]1O)C2(C)C` (single isomer, unassigned): the concentration for half-maximal inhibition (IC50) with A549 was 0.08 µM; in the data set with MDA-MB-231, 0.21 µM; in the data set with KB, above 40 µM; in data set [1], above 40 µM; in the data set with MCF7, above 10 µM; in data set [2] it was 0.0135 µM. Also, the CC75 in the data set with MT4 is above 5 µM. Also, in data set [3], the selectivity ratio is above 350.

As for `CC(=O)O[C@@]12[C@H](OC(=O)/C=C/c3ccccc3)[C@@H](C)[C@@]3(O)[C@@H](C=C(CO)C[C@]4(O)C(=O)C(C)=C[C@@H]34)[C@@H]1C2(C)C`, the IC50 in the data set on A549 was above 10 µM; in the data set on MDA-MB-231, above 10 µM; in the data set with KB, above 10 µM; in [1], above 10 µM; in the data set with MCF7, above 10 µM; in data set [2], 0.0031 µM. Besides, the CC75 with MT4 was above 5 µM. Besides, in [3], the selectivity ratio was above 1500.

`CC(=O)O[C@@]12[C@H](OC(=O)/C=C/c3ccc(Cl)cc3)[C@@H](C)[C@@]3(O)[C@@H](C=C(CO)C[C@]4(O)C(=O)C(C)=C[C@@H]34)[C@@H]1C2(C)C`: the IC50 was above 10 µM in the data set with A549; above 10 µM with MDA-MB-231; above 10 µM in the data set on KB; above 10 µM in data set [1]; above 10 µM in the data set on MCF7; 0.00075 µM in data set [2]. The IC50 in the data set with MRC5 was 7.13 µM. The CC75 with MT4 is above 5 µM. Besides, the selectivity ratio in data set [3] is above 5000.

For the compound `CCCC(=O)O[C@]12C([C@@H]3C=C(CO)C[C@]4(O)C(=O)C(C)=C[C@H]4[C@@]3(O)[C@H](C)[C@H]1OC(=O)/C=C/c1ccc(O)c(OC)c1)C2(C)C` (single isomer, unassigned), the 50% inhibitory concentration (IC50) was above 10 µM in the data set on A549; above 10 µM in the data set on MDA-MB-231; above 10 µM in the data set with KB; above 10 µM in data set [1]; above 10 µM in the data set with MCF7; 0.0872 µM in data set [2]. In the data set with MT4, the CC75 is above 5 µM. Moreover, the selectivity ratio in data set [3] was above 50.

As for `CC/C=C/C/C=C/C/C=C/C/C=C/C/C=C/CCCC(=O)O[C@]12C([C@@H]3C=C(CO)C[C@]4(O)C(=O)C(C)=C[C@H]4[C@@]3(O)[C@H](C)[C@H]1O)C2(C)C` (single isomer, unassigned), the IC50 in the data set on A549 was 0.09 µM; with MDA-MB-231, 1.99 µM; in the data set on KB, above 10 µM; in data set [1], above 10 µM; in the data set with MCF7 it was above 10 µM; in data set [2], 0.0623 µM. Also, the CC75 in the data set on MT4 is above 5 µM. In data set [3], the selectivity ratio is above 50.
